Tested on: HBV (2.2.15 cells)
Assay: Antiviral activity in 2.2.15 cells: reduction of viral product accumulation (qPCR of lysates, HBsAg or HBeAg ELISA)
Format: cell-based, hepatitis B virus (HBV)
Details: Hepatitis B virus, 120 h, day 5 post treatment, 50% reduction of viral product accumulation in lysates or supernatants vs no drug controls, readout (qPCR, HBsAg, HBeAg) not specified
Description: 2.2.15 cells are passaged upon attaining confluency in DMEM/F12 media in the presence of 10% FBS, Penn/Strep, and 250 ug/mL G418. Novel compounds are 5 fold serially diluted in DMSO and added to 96 well plates containing 35,000 cells/well at a 1:200 dilution so that the final concentration of DMSO is 0.5%. On day 5, post treatment cell lysates and supernatants are harvested for analysis.
Cells are lysed using Agilent Sidestep Lysis buffer, diluted 1:100 and quantified via quantitative real time PCR. Commercially available ELISA kits are used to quantitate the viral proteins HBsAg (Alpco) or HBeAg (US Biological) by following the manufacturer's recommended protocol after diluting samples to match the linear range of their respective assays. Irrespective of readout, compound concentrations that reduce viral product accumulation in the cell lysates or supernatants by 50% relative to no drug controls (EC50) are reported; EC50 ranges are as follows: A<0.1 μM; B 0.1-1 μM; C>1 μM.

Compared with COCCCOc1cc2c(cc1-c1ccc3c(c1)OCCO3)-c1cc(=O)c(C(=O)O)cn1[C@H](C(C)(C)C)C2 [Example 31, (S)-6-(tert-butyl)-10-(2,3-dihydrobenzo[b][1,4]dioxin-6-yl)-9-(3-methoxypropoxy)-2-oxo-6,7-dihydro-2H-pyrido[2,1-a]isoquinoline-3-carboxylic Acid], COCCCOc1cc2c(cc1-c1ccc3c(c1)OCCC3)-c1cc(=O)c(C(=O)O)cn1[C@H](C(C)(C)C)C2 [Example 39, (S)-6-(tert-butyl)-10-(chroman-7-yl)-9-(3-methoxypropoxy)-2-oxo-6,7-dihydro-2H-pyrido[2,1-a]isoquinoline-3-carboxylic Acid] is higher in EC50: < 100 nM for the first, > 1000 nM for the second.

COCCCOc1cc2c(cc1-c1cn(C)nc1C)-c1cc(=O)c(C(=O)O)cn1[C@H](C(C)(C)C)C2 [Example 32, (S)-6-(tert-butyl)-10-(1,3-dimethyl-1H-pyrazol-4-yl)-9-(3-methoxypropoxy)-2-oxo-6,7-dihydro-2H-pyrido[2,1-a]isoquinoline-3-carboxylic Acid] and COCCCOc1cc2c(cc1-c1c(C)nn(C)c1C)-c1cc(=O)c(C(=O)O)cn1[C@H](C(C)(C)C)C2 [Example 33, (S)-6-(tert-butyl)-9-(3-methoxypropoxy)-2-oxo-10-(1,3,5-trimethyl-1H-pyrazol-4-yl)-6,7-dihydro-2H-pyrido[2,1-a]isoquinoline-3-carboxylic Acid] cannot be ordered by EC50: < 100 nM for the first, < 100 nM for the second.

CCn1cc(-c2cc3c(cc2OCCCOC)C[C@@H](C(C)(C)C)n2cc(C(=O)O)c(=O)cc2-3)cn1 [Example 34, (S)-6-(tert-butyl)-10-(1-ethyl-1H-pyrazol-4-yl)-9-(3-methoxypropoxy)-2-oxo-6,7-dihydro-2H-pyrido[2,1-a]isoquinoline-3-carboxylic Acid] and COCCCOc1cc2c(cc1-c1cnnn1C)-c1cc(=O)c(C(=O)O)cn1[C@H](C(C)(C)C)C2 [Example 48, (S)-6-(tert-butyl)-9-(3-methoxypropoxy)-10-(1-methyl-1H-1,2,3-triazol-5-yl)-2-oxo-6,7-dihydro-2H-pyrido[2,1-a]isoquinoline-3-carboxylic Acid] cannot be ordered by EC50: < 100 nM for the first, < 100 nM for the second.

COCCCOc1cc2c(cc1-c1nnnn1C)-c1cc(=O)c(C(=O)O)cn1[C@H](C(C)(C)C)C2 [Example 35, (S)-6-(tert-butyl)-9-(3-methoxypropoxy)-10-(1-methyl-1H-tetrazol-5-yl)-2-oxo-6,7-dihydro-2H-pyrido[2,1-a]isoquinoline-3-carboxylic Acid] and COCCCOc1cc2c(cc1-c1nnc(C)o1)-c1cc(=O)c(C(=O)O)cn1[C@H](C(C)(C)C)C2 [Example 49, (S)-6-(tert-butyl)-9-(3-methoxypropoxy)-10-(5-methyl-1,3,4-oxadiazol-2-yl)-2-oxo-6,7-dihydro-2H-pyrido[2,1-a]isoquinoline-3-carboxylic Acid] cannot be ordered by EC50: < 100 nM for the first, < 100 nM for the second.

COCCCOc1cc2c(cc1-c1nnco1)-c1cc(=O)c(C(=O)O)cn1[C@H](C(C)(C)C)C2 [Example 36, (S)-6-(tert-butyl)-9-(3-methoxypropoxy)-10-(1,3,4-oxadiazol-2-yl)-2-oxo-6,7-dihydro-2H-pyrido[2,1-a]isoquinoline-3-carboxylic Acid] and CCc1nnc(-c2cc3c(cc2OCCCOC)C[C@@H](C(C)(C)C)n2cc(C(=O)O)c(=O)cc2-3)o1 [Example 43, (S)-6-(tert-butyl)-10-(5-ethyl-1,3,4-oxadiazol-2-yl)-9-(3-methoxypropoxy)-2-oxo-6,7-dihydro-2H-pyrido[2,1-a]isoquinoline-3-carboxylic Acid] cannot be ordered by EC50: < 100 nM for the first, < 100 nM for the second.

COCCCOc1cc2c(cc1-c1ccc(OC(F)(F)F)cc1)-c1cc(=O)c(C(=O)O)cn1[C@H](C(C)(C)C)C2 [Example 37, (S)-6-(tert-butyl)-9-(3-methoxypropoxy)-2-oxo-10-(4-(trifluoromethoxy)phenyl)-6,7-dihydro-2H-pyrido[2,1-a]isoquinoline-3-carboxylic Acid] and COCCCOc1cc2c(cc1-c1ccc(OC(C)C)cc1)-c1cc(=O)c(C(=O)O)cn1[C@H](C(C)(C)C)C2 [Example 38, (S)-6-(tert-butyl)-10-(4-isopropoxyphenyl)-9-(3-methoxypropoxy)-2-oxo-6,7-dihydro-2H-pyrido[2,1-a]isoquinoline-3-carboxylic Acid] cannot be ordered by EC50: > 1000 nM for the first, > 1000 nM for the second.

COCCCOc1cc2c(cc1-c1ccc(OC3CC3)cc1)-c1cc(=O)c(C(=O)O)cn1[C@H](C(C)(C)C)C2 [Example 40, (S)-6-(tert-butyl)-10-(4-cyclopropoxyphenyl)-9-(3-methoxypropoxy)-2-oxo-6,7-dihydro-2H-pyrido[2,1-a]isoquinoline-3-carboxylic Acid] and COCCCOc1cc2c(cc1-c1ccc3oncc3c1)-c1cc(=O)c(C(=O)O)cn1[C@H](C(C)(C)C)C2 [Example 47, (S)-10-(benzo[d]isoxazol-5-yl)-6-(tert-butyl)-9-(3-methoxypropoxy)-2-oxo-6,7-dihydro-2H-pyrido[2,1-a]isoquinoline-3-carboxylic Acid] cannot be ordered by EC50: > 1000 nM for the first, > 1000 nM for the second.

COCCCOc1cc2c(cc1C1CCCCO1)-c1cc(=O)c(C(=O)O)cn1[C@H](C(C)(C)C)C2 (stereo partly drawn) [Example 41, (6S)-6-(tert-butyl)-9-(3-methoxypropoxy)-2-oxo-10-(tetrahydro-2H-pyran-2-yl)-6,7-dihydro-2H-pyrido[2,1-a]isoquinoline-3-carboxylic Acid] and COCCCOc1cc2c(cc1N1CCCC1)-c1cc(=O)c(C(=O)O)cn1[C@@H](C(C)(C)C)C2 [Example 50, (R)-6-(tert-butyl)-9-(3-methoxypropoxy)-2-oxo-10-(pyrrolidin-1-yl)-6,7-dihydro-2H-pyrido[2,1-a]isoquinoline-3-carboxylic Acid] cannot be ordered by EC50: < 100 nM for the first, < 100 nM for the second.

COCCCOc1cc2c(cc1C1=COCCC1)-c1cc(=O)c(C(=O)O)cn1[C@H](C(C)(C)C)C2 [Example 42, (S)-6-(tert-butyl)-10-(3,4-dihydro-2H-pyran-5-yl)-9-(3-methoxypropoxy)-2-oxo-6,7-dihydro-2H-pyrido[2,1-a]isoquinoline-3-carboxylic Acid] and COCCCOc1cc2c(cc1-c1cnc(OC)nc1)-c1cc(=O)c(C(=O)O)cn1[C@H](C(C)(C)C)C2 [Example 44, (S)-6-(tert-butyl)-9-(3-methoxypropoxy)-10-(2-methoxypyrimidin-5-yl)-2-oxo-6,7-dihydro-2H-pyrido[2,1-a]isoquinoline-3-carboxylic Acid] cannot be ordered by EC50: < 100 nM for the first, < 100 nM for the second.

COCCCOc1cc2c(cc1-c1cc(OC)nnc1OC)-c1cc(=O)c(C(=O)O)cn1[C@H](C(C)(C)C)C2 [Example 45, (S)-6-(tert-butyl)-10-(3,6-dimethoxypyridazin-4-yl)-9-(3-methoxypropoxy)-2-oxo-6,7-dihydro-2H-pyrido[2,1-a]isoquinoline-3-carboxylic Acid] and COCCCOc1cc2c(cc1-n1cccn1)-c1cc(=O)c(C(=O)O)cn1[C@@H](C(C)(C)C)C2 [Example 51, (R)-6-(tert-butyl)-9-(3-methoxypropoxy)-2-oxo-10-(1H-pyrazol-1-yl)-6,7-dihydro-2H-pyrido[2,1-a]isoquinoline-3-carboxylic Acid] cannot be ordered by EC50: < 100 nM for the first, < 100 nM for the second.

COCCCOc1cc2c(cc1-n1ccc3ccccc31)-c1cc(=O)c(C(=O)O)cn1[C@H](C(C)(C)C)C2 [Example 52, (S)-6-(tert-butyl)-10-(1H-indol-1-yl)-9-(3-methoxypropoxy)-2-oxo-6,7-dihydro-2H-pyrido[2,1-a]isoquinoline-3-carboxylic Acid] was tested, and the EC50 was < 100 nM.

Reference: patent US11058678B2 (Enanta Pharmaceuticals, Inc., priority 2018, dated 2021)
